In patent US20210386068A1, “COMPOSITIONS COMPRISING PYRIDINE CARBOXYLATE HERBICIDES AND VERY LONG CHAIN FATTY ACID (VLCFA) SYNTHESIS INHIBITOR HERBICIDES” (priority 2018, published 2021):
Values joined by “and” are separate entries in the source; they are usually repeats but may differ in a detail not shown here. Equal values may be shown once.

Legend:
[1] = test system: Stellaria media (common chickweed, STEME); assay: Greenhouse postemergence herbicidal effect, visual injury 20-22 d after spraying, common chickweed (STEME); assay type: in vivo
Text: (§1) Seeds of the desired test plant species were planted in a 90:10% v/v (volume/volume) mixture of PRO-MIX® BX (Premier Tech Horticulture, Quakertown, Pa., USA) and PROFILE® GREENS GRADE™ (Profile Products LLC, Buffalo Grove, Ill., USA) planting mixture, which typically has a pH of 5.2 to 6.2 and an organic matter content of at least 50 percent, in plastic pots with a surface area of 103.2 square centimeters (cm^2). In some aspects, to ensure good germination and healthy plants, a fungicide treatment and/or other chemical or physical treatment was applied. The plants were grown for 7-36 days (d) in a greenhouse with an approximate 14-hour (h) photoperiod which was maintained at about 23° C. during the day and 22° C. during the night. Nutrients and water were added on a regular basis and supplemental lighting was provided with overhead metal halide 1000-Watt lamps as necessary. The plants were employed for testing when they reached the second or third true leaf stage.
(§2) Emulsifiable concentrates of each of each pyridine carboxylate herbicide (Compound A or Compound B) were prepared at 100 grams acid equivalent per liter (g ae/L). The emulsifiable concentrates also included a safener, cloquintocet-mexyl, at 120 grams active ingredient per liter (g ai/L). An aliquot of each emulsifiable concentrate was placed in a 25 mL glass vial and diluted with an aqueous mixture of 1.25% (v/v) ACTIROB® B esterified rapeseed oil (Bayer Crop Science, Research Triangle Park, N.C., USA) or MSO® Concentrate with LECI-TECH® methylated soybean oil (Loveland Products, Loveland, Colo., USA) to obtain concentrated stock solutions at the highest application rate for each herbicide, based upon a 12 milliliter (mL) application volume at a rate of 187 liters per hectare (L/ha). The concentrated stock solutions were further diluted with an aqueous mixture of 1.25% v/v ACTIROB® B or MSO® Concentrate with LECI-TECH® to obtain stock solutions at reduced application rates for each herbicide. Spray solutions of the herbicide combinations (Compound A or Compound B plus VLCFA synthesis inhibitor herbicide) were prepared by adding weighed amounts or aliquots of the VLCFA synthesis inhibitor herbicide to the stock solutions of Compound A or Compound B to form 12-mL spray solutions in two-way combinations.
(§3) The spray solutions were applied to the plant material with an overhead Mandel track sprayer equipped with 8002E nozzles calibrated to deliver 187 L/ha over an application area of 0.503 square meters (m^2) at a spray height of 18 inches ([…] (cm)) above the average plant canopy. Control plants were sprayed in the same manner with the solvent blank. All pyridine carboxylate herbicide (component a) application rates are given as “g ae/ha” and all VLCFA synthesis inhibitor herbicide (component b) application rates are given as “g ai/ha.”
(§4) The treated plants and control plants were placed in a greenhouse as described above and watered by sub-irrigation to prevent wash-off of the test compounds. After 20-22 d, the condition of the test plants as compared with that of the control plants was determined visually and scored on a scale of 0 to 100 percent where 0 corresponds to no injury and 100 corresponds to complete kill.

winter wheat (TRZAW) = assay: Greenhouse postemergence crop phytotoxicity, visual injury 20-22 d after spraying, winter wheat (TRZAW); assay type: in vivo, Triticum aestivum
Text: as §1, §2, §3, §4

[2] = test system: Polygonum convolvulus (wild buckwheat, POLCO); assay: Greenhouse postemergence herbicidal effect, visual injury 20-22 d after spraying, wild buckwheat (POLCO); assay type: in vivo
Text: as §1, §2, §3, §4

[3] = test system: Cirsium arvense (Canadian thistle, CIRAR); assay: Greenhouse postemergence herbicidal effect, visual injury 20-22 d after spraying, Canadian thistle (CIRAR); assay type: in vivo
Text: as §1, §2, §3, §4

[4] = test system: Ipomoea hederacea (ivyleaf morningglory, IPOHE); assay: Greenhouse postemergence herbicidal effect, visual injury 20-22 d after spraying, ivyleaf morningglory (IPOHE); assay type: in vivo
Text: as §1
(§5) Emulsifiable concentrates of each of each pyridine carboxylate herbicide (Compound A or Compound B) were prepared at 100 grams acid equivalent per liter (g ae/L). The emulsifiable concentrates also included a safener, cloquintocet-mexyl, at 120 grams active ingredient per liter (g ai/L). […]
as §4

winter barley (HORVW) = assay: Greenhouse postemergence crop phytotoxicity, visual injury 20-22 d after spraying, winter barley (HORVW); assay type: in vivo, Hordeum vulgare
Text: as §1, §2, §3, §4

[5] = test system: Matricaria chamomilla (wild chamomile, MATCH); assay: Greenhouse postemergence herbicidal effect, visual injury 20-22 d after spraying, wild chamomile (MATCH); assay type: in vivo
Text: as §1, §2, §3, §4

[6] = test system: Viola arvensis (field pansy, VIOAR); assay: Greenhouse postemergence herbicidal effect, visual injury 20-22 d after spraying, field pansy (VIOAR); assay type: in vivo
Text: as §1, §2, §3, §4

[7] = test system: Brassica napus (winter rape, BRSNW); assay: Greenhouse postemergence herbicidal effect, visual injury 20-22 d after spraying, winter rape (BRSNW); assay type: in vivo; conditions: for % visual injury Obs: BRSNW
Text: as §1, §2, §3, §4

[8] = test system: Sinapis arvensis (wild mustard, SINAR); assay: Greenhouse postemergence herbicidal effect, visual injury 20-22 d after spraying, wild mustard (SINAR); assay type: in vivo; conditions: for % visual injury Obs: SINAR
Text: as §1, §2, §3, §4

[9] = test system: Chenopodium album L. (common lambsquarters, CHEAL); assay: Greenhouse postemergence herbicidal effect, visual injury 20-22 d after spraying, common lambsquarters (CHEAL); assay type: in vivo
Text: as §1, §2, §3, §4

[10] = test system: Matricaria inodora (scentless chamomile, MATIN); assay: Greenhouse postemergence herbicidal effect, visual injury 20-22 d after spraying, scentless chamomile (MATIN); assay type: in vivo
Text: as §1, §2, §3, §4

[11] = test system: Helianthus annuus (common sunflower, HELAN); assay: Greenhouse postemergence herbicidal effect, visual injury 20-22 d after spraying, common sunflower (HELAN); assay type: in vivo
Text: as §1, §5, §4

## N#CCOC(=O)c1nc(-c2ccc3cc[nH]c3c2F)c(F)c(N)c1Cl [Compound A, cyanomethyl 4-amino-3-chloro-5-fluoro-6-(7-fluoro-1H-indol-6-yl)pyridine-2-carboxylate]
[1]; Compound A 7.5 g/ha
  % visual injury STEME Obs: 85%
[1]; Compound A 10 g/ha
  % visual injury STEME Obs: 88%
[1]; Compound A 15 g/ha
  % visual injury STEME Obs: 89%
Winter wheat (TRZAW); Compound A 7.5 g/ha
  % visual injury TRZAW Obs: 0%
Winter wheat (TRZAW); Compound A 10 g/ha
  % visual injury TRZAW Obs: 0%
Winter wheat (TRZAW); Compound A 15 g/ha
  % visual injury TRZAW Obs: 0%
[2]; Compound A 7.5 g/ha
  % visual injury POLCO Obs: 65%
[2]; Compound A 10 g/ha
  % visual injury POLCO Obs: 78%
[2]; Compound A 15 g/ha
  % visual injury POLCO Obs: 85%
[3]; Compound A 7.5 g/ha
  % visual injury CIRAR Obs: 50%
[3]; Compound A 10 g/ha
  % visual injury CIRAR Obs: 63%
[3]; Compound A 15 g/ha
  % visual injury CIRAR Obs: 63%
[4]; Compound A 7.5 g/ha alone
  % visual injury Obs: 5%
[4]; Compound A 10 g/ha alone
  % visual injury Obs: 0%
Winter barley (HORVW); Compound A 7.5 g/ha
  % visual injury HORVW Obs: 0%
Winter barley (HORVW); Compound A 10 g/ha
  % visual injury HORVW Obs: 0%
Winter barley (HORVW); Compound A 15 g/ha
  % visual injury HORVW Obs: 0%
[5]; Compound A 7.5 g/ha
  % visual injury MATCH Obs: 23%
[5]; Compound A 10 g/ha
  % visual injury MATCH Obs: 35%
[5]; Compound A 15 g/ha
  % visual injury MATCH Obs: 45%
[6]; Compound A 7.5 g/ha
  % visual injury VIOAR Obs: 10%
[6]; Compound A 10 g/ha
  % visual injury VIOAR Obs: 13%
[6]; Compound A 15 g/ha
  % visual injury VIOAR Obs: 10%
[7]; Compound A 7.5 g/ha alone
  % visual injury Obs: 35%
[7]; Compound A 10 g/ha alone
  % visual injury Obs: 43% and 40%
[7]; Compound A 7.5 g/ha
  % visual injury BRSNW Obs: 60%
[7]; Compound A 10 g/ha
  % visual injury BRSNW Obs: 65%
[7]; Compound A 15 g/ha
  % visual injury BRSNW Obs: 73%
[8]; Compound A 7.5 g/ha
  % visual injury SINAR Obs: 88%
[8]; Compound A 10 g/ha
  % visual injury SINAR Obs: 91%
[8]; Compound A 15 g/ha
  % visual injury SINAR Obs: 91%
[8]; Compound A 7.5 g/ha alone
  % visual injury Obs: 88% and 85% and 83%
[8]; Compound A 10 g/ha alone
  % visual injury Obs: 90% and 92% and 88%
[9]; Compound A 7.5 g/ha alone
  % visual injury Obs: 88% and 70% and 60% and 75%
[9]; Compound A 10 g/ha alone
  % visual injury Obs: 93% and 83% and 90% and 80%
[10]; Compound A 7.5 g/ha
  % visual injury MATIN Obs: 55%
[10]; Compound A 10 g/ha
  % visual injury MATIN Obs: 60%
[10]; Compound A 15 g/ha
  % visual injury MATIN Obs: 83%
[11]; Compound A 7.5 g/ha alone
  % visual injury Obs: 83%
[11]; Compound A 10 g/ha alone
  % visual injury Obs: 88%
